Reference: US7691848B2, “Pyrrolobenzodiazepine arylcarboxamides and derivatives thereof as follicle-stimulating hormone receptor antagonists” (Wyeth, priority 2005, dated 2010)
pIC50: −log10 of the molar value. Read-outs that look alike come from different tables or passages of the source.

Legend:
[1] = biological target: T1, human FSH receptor (Homo sapiens, UniProt P23945); assay: Follicle-Stimulating Hormone Receptor-Dependent Cre-Luciferase Reporter Gene Assay (CHO FSH-R 6CRE-Luc cells); type: cell-based; conditions: for pIC50: dose-response format, in presence of EC50 of purified human FSH
T1 construct: host or cells: CHO-K1 (CHO FSH-R 6CRE-Luc, 1D7 cells)
T1 sequence (P23945 18-695): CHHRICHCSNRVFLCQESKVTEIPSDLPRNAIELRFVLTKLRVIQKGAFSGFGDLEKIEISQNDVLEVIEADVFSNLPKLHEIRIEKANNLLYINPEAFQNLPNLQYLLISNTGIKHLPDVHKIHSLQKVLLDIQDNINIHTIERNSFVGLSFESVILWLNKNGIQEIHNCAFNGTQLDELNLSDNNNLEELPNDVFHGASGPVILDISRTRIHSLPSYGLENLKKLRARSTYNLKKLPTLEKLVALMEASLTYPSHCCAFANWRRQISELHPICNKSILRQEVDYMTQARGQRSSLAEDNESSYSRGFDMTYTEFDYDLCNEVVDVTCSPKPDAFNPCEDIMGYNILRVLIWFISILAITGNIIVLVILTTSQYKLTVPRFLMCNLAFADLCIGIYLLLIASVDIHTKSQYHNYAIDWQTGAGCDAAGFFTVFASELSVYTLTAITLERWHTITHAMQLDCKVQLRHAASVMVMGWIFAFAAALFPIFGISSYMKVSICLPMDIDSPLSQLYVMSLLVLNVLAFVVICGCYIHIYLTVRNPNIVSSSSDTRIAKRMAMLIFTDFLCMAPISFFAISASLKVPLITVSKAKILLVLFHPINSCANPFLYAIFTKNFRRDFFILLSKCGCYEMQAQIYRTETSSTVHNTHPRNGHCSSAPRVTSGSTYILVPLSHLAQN
Summary of the method: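 CHO-K1 cells stably expressing human FSH receptor and a 6×CRE-driven luciferase reporter; compounds in growth medium with 0.2% DMSO, incubated 4 h at 37 °C. Luciferase measured by chemiluminescence (RLU/sec/well); 2-dose results given as percent inhibition of the response to an EC50 concentration of FSH.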

[2] = biological target: T2, hFSH-R (Homo sapiens, UniProt P23945); assay: cAMP accumulation (RIA) in CHO-3D2 cells (hFSH-R), hFSH-induced; type: cell-based; conditions: for Emax: read-out: cAMP % efficacy
T2 construct: expressed in transfected cells; host or cells: CHO-3D2 cells (CHO-K1 parental line)
T2 sequence (P23945 18-695): T1 sequence (P23945 18-695)
Description: In Vitro Bio-Assay, Selectivity and Dependency of Agonists and Antagonists to the FSH Receptor
Compound Vehicle: Stock compounds were solubilized in 100% DMSO (Sigma-Aldrich Chemical Co., St. Louis, Mo.) at a concentration of 30 mM. The compounds subsequently were diluted in sterile assay medium consisting of Opti-MEM® I (Invitrogen/Life Technologies, Carlsbad, Calif.) with 0.1% (w/v) BSA (Sigma-Aldrich) prior to use in the bio-assay. The final concentration of DMSO in the assay was 0.1%.
Plated cells are then incubated at 37° C. in a humidified 5% CO2/95% air atmosphere.
Assay: On the day of the assay, cells were washed three times with 100 μl/well of assay medium consisting of Opti-MEM® I (Invitrogen/Life Technologies) with 0.1% (w/v) BSA (Sigma-Aldrich). Medium was removed and 100 μl of assay medium was added to each well. Plates were incubated for an additional 30 minutes at 37° C. […] Reactions were terminated by the addition of 50 μl of 0.2N hydrochloric acid to each well and cAMP-accumulation was measured by radioimmunoassay (RIA) using a commercially available kit (Amersham Biosciences, Piscataway, N.J.).
All test compounds were evaluated in a dose-response paradigm ranging from 0.01 to 30 μM. Controls and test compounds were evaluated in quadruplicate in a 96-well format.
Along with the test compounds, FSH also was run as a positive control in the agonist mode using concentrations ranging from 0.1-1000 ng/ml.
Data were analyzed by one-way analysis of variance and significant differences between treatments and control determined by Least Significant Difference test.
Test compounds were compared to the effect of purified human FSH.

[3] = 2-dose format, concentration in parentheses 30 μM, inhibition of the response to EC50 of FSH
[4] = inhibition of cAMP accumulation induced by hFSH at EC20, CHO-3D2 cells

Structure (SMILES) | pIC50 [1] | pIC50 [2] | Emax [2] | melting point | further results
Cc1ccccc1-c1ccc(C(=O)N2Cc3ccc(C(=O)NCc4ccccc4)n3Cc3ccccc32)cc1C [Example 15] | 5.59 | 6.40 | 90% | 138 to 141 °C | –
Cc1ccccc1-c1ccc(C(=O)N2Cc3ccc(C(=O)NCCc4ccc(O)cc4)n3Cc3ccccc32)cc1C [Example 31] | 6.10 | 6.70 | 100% | 129 to 131 °C | –
COc1cc(C(=O)N2Cc3ccc(C(=O)NCc4ccc5c(c4)OCCO5)n3Cc3ccccc32)ccc1-c1ccccc1C [Example 64] | 5.47 | 5.89 | 79% | 153 to 155 °C | –
COc1cc(C(=O)N2Cc3ccc(C(=O)NCc4ccc(F)cc4F)n3Cc3ccccc32)ccc1-c1ccccc1C [Example 61, N-(2,4-DILUOROBENZYL)-10-[(2-METHOXY-2′-METHYL-1,1′-BIPHENYL-4-YL)CARBONYL]-10,11-DIHYDRO-5H-PYRROLO[2,1-C][1,4]BENZODIAZEPINE-3-CARBOXAMIDE] | 5.37 | – | – | – | CRE % inhibition (μM) [1, 3]: 50(30) %; pIC50 [2, 4]: 5.55; cAMP % efficacy [2, 4]: 82%
COc1cccc(CNC(=O)c2ccc3n2Cc2ccccc2N(C(=O)c2ccc(-c4ccccc4C)c(C)c2)C3)c1 [Example 7] | 5.65 | 6.52 | 89% | – | –
O=C(NCCc1ccc(O)cc1)c1ccc2n1Cc1ccccc1N(C(=O)COc1ccc(Cl)cc1)C2 [Example 68, 10-[(4-CHLOROPHENOXY)ACETYL]-N-[2-(4-HYDROXYPHENYL)ETHYL]-10,11-DIHYDRO-5H-PYRROLO[2,1-C][1,4]BENZODIAZEPINE-3-CARBOXAMIDE] | 4.88 | – | – | 206 to 207 °C | –
Cc1ccccc1-c1ccc(C(=O)N2Cc3ccc(C(=O)NCCc4ccc5c(c4)OCO5)n3Cc3ccccc32)cc1C [Example 33] | 5.25 | < 4.52 | – | – | –
Cc1ccccc1-c1ccc(C(=O)N2Cc3ccc(C(=O)NCc4ccc(C(=O)c5ccccc5)cc4)n3Cc3ccccc32)cc1C [Example 88] | < 4.52 | – | – | 148 to 150 °C | –
CCOC(=O)c1cccc(NC(=O)c2ccc3n2Cc2ccccc2N(C(=O)COc2ccc(Cl)cc2)C3)c1 [Example 99, ETHYL 3-[({10-[(4-CHLOROPHENOXY)ACETYL]-10,11-DIHYDRO-5H-PYRROLO[2,1-C][1,4]BENZODIAZEPIN-3-YL}CARBONYL)AMINO]BENZOATE] | < 4.52 | – | – | 179 to 180 °C | –
Cc1ccccc1-c1ccc(C(=O)N2Cc3ccc(C(=O)NCCc4cccc(Cl)c4)n3Cc3ccccc32)cc1C [Example 26] | – | – | – | 174 to 176 °C | inhibition at 30 µM [1, 3]: 62%
COc1cc(CNC(=O)c2ccc3n2Cc2ccccc2N(C(=O)COc2ccc(Cl)cc2C)C3)ccc1O [Example 78, 10-[(4-CHLORO-2-METHYLPHENOXY)ACETYL]-N-(4-HYDROXY-3-METHOXYBENZYL)-10,11-DIHYDRO-5H-PYRROLO[2,1-C][1,4]BENZODIAZEPINE-3-CARBOXAMIDE] | – | – | – | 167 to 168 °C | inhibition at 30 µM [1, 3]: 33%
COC(=O)c1ccc(NC(=O)c2ccc3n2Cc2ccccc2N(C(=O)COc2ccc(Cl)cc2)C3)cc1OC [Example 95, METHYL 4-[({10-[(4-CHLOROPHENOXY)ACETYL]-10,11-DIHYDRO-5H-PYRROLO[2,1-C][1,4]BENZODIAZEPIN-3-YL}CARBONYL)AMINO]-2-METHOXYBENZOATE] | < 4.52 | – | – | 172 to 174 °C | –
COc1cc(C(=O)N2Cc3ccc(C(=O)NCCc4ccc(C)cc4)n3Cc3ccccc32)ccc1-c1ccccc1C [Example 48] | < 4.52 | – | – | 190 to 192 °C | –
Cc1ccccc1-c1ccc(C(=O)N2Cc3ccc(C(=O)NC4Cc5ccccc5C4)n3Cc3ccccc32)cc1C [Example 93] | < 4.52 | – | – | 219 to 220 °C | –

Continued, in another order:

pIC50 [1] | pIC50 [2] | Emax [2] | melting point | Structure (SMILES) | further results
5.77 | 5.59 | 86% | 179 to 181 °C | Cc1ccc(CNC(=O)c2ccc3n2Cc2ccccc2N(C(=O)c2ccc(-c4ccccc4C)c(C)c2)C3)cc1 [Example 14] | –
5.19 | 5.59 | 88% | 128 to 130 °C | Cc1ccccc1CNC(=O)c1ccc2n1Cc1ccccc1N(C(=O)c1ccc(-c3ccccc3C)c(C)c1)C2 [Example 17] | –
< 4.52 | 4.89 | 60% | 190 to 194 °C | COc1cc(C(=O)N2Cc3ccc(C(=O)NCCc4ccc(O)cc4)n3Cc3ccccc32)ccc1-c1ccccc1C [Example 55, N-[2-(4-HYDROXYPHENYL)ETHYL]-10-[(2-METHOXY-2′-METHYL-1,1′-BIPHENYL-4-YL)CARBONYL]-10,11-DIHYDRO-5H-PYRROLO[2,1-C][1,4]BENZODIAZEPINE-3-CARBOXAMIDE] | –
5.36 | 5.20 | 74% | 176 to 177 °C | COc1cc(C(=O)N2Cc3ccc(C(=O)NCc4cccc(C(F)(F)F)c4)n3Cc3ccccc32)ccc1-c1ccccc1C [Example 42, 10-[(2-METHOXY-2′-METHYL-1,1′-BIPHENYL-4-YL)CARBONYL]-N-[3-(TRIFLUOROMETHYL)BENZYL]-10,11-DIHYDRO-5H-PYRROLO[2,1-C][1,4]BENZODIAZEPINE-3-CARBOXAMIDE] | –
4.59 | 5.92 | 100% | – | COc1ccccc1-c1ccc(C(=O)N2Cc3ccc(C(=O)NCC(c4ccccc4)N(C)C)n3Cc3ccccc32)cc1 (stereo not drawn) [Example 2] | –
< 4.52 | – | – | 143 °C | O=C(NCCc1ccc2c(c1)OCO2)c1ccc2n1Cc1ccccc1N(C(=O)CSc1ccc(Br)cc1)C2 [Example 104, N-[2-(1,3-BENZODIOXOL-5-YL)ETHYL]-10-{[(4-BROMOPHENYL)THIO]ACETYL}-10,11-DIHYDRO-5H-PYRROLO[2,1-C][1,4]BENZODIAZEPINE-3-CARBOXAMIDE] | –
– | – | – | 218 to 219 °C | COc1cc(C(=O)N2Cc3ccc(C(=O)NCc4ccc(Cl)cc4)n3Cc3ccccc32)ccc1-c1ccccc1C [Example 43, N-(4-CHLOROBENZYL)-10-[(2-METHOXY-2′-METHYL-1,1′-BIPHENYL-4-YL)CARBONYL]-10,11-DIHYDRO-5H-PYRROLO[2,1-C][1,4]BENZODIAZEPINE-3-CARBOXAMIDE] | inhibition at 30 µM [1, 3]: 56%
< 4.52 | – | – | 122 to 124 °C | Cc1ccccc1-c1ccc(C(=O)N2Cc3ccc(C(=O)NC4CCc5ccccc54)n3Cc3ccccc32)cc1C (stereo not drawn) [Example 92] | –
< 4.52 | – | – | 277 to 278 °C | O=C1c2cc(Br)ccc2-c2ccc(NC(=O)c3ccc4n3Cc3ccccc3N(C(=O)COc3ccc(Cl)cc3)C4)cc21 [Example 103, N-(7-BROMO-9-OXO-9H-FLUOREN-2-YL)-10-[(4-CHLOROPHENOXY)ACETYL]-10,11-DIHYDRO-5H-PYRROLO[2,1-C][1,4]BENZODIAZEPINE-3-CARBOXAMIDE] | –
5.38 | 6.05 | 97% | – | Cc1ccccc1-c1ccc(C(=O)N2Cc3ccc(C(=O)NCc4cccc(O)c4)n3Cc3ccccc32)cc1C [Example 10] | –
< 4.52 | – | – | 154 to 155 °C | Cc1ccccc1-c1ccc(C(=O)N2Cc3ccc(C(=O)NCc4ccc(N(C)C)cc4)n3Cc3ccccc32)cc1C [Example 91] | –
